Activity calls are given as the source filed them. The calls are words filed in the database; no cut-off is given here.
How the values were obtained:
[1] = biological target: T1, Carbonic anhydrase (Pseudomonas aeruginosa (strain ATCC 15692 / PAO1 / 1C / PRS 101 / LMG12228), UniProt Q9HVB9); assay: biochemical; type: cell-based, BL21-DE3
T1 sequence (Q9HVB9 whole entry): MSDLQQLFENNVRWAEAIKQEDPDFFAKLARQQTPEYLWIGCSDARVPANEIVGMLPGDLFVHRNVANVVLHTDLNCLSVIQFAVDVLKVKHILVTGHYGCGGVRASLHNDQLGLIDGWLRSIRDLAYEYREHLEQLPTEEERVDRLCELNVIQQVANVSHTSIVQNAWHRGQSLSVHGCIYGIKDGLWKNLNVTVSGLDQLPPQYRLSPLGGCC
Description: Inhibition of Pseudomonas aeruginosa PAO1 type-2 beta-carbonic anhydrase psCA3 expressed in Escherichia coli Tuner BL21 (DE3) cells pre-incubated for 15 mins at pH 8.3 and 293K by CO2 hydration reaction based colorimetric stopped-flow method

[2] = system: Pseudomonas aeruginosa; assay: Induction of growth delay of Pseudomonas aeruginosa PAO1 assessed as growth delay time; type: functional
[3] = system: Pseudomonas aeruginosa; assay: Induction of growth defect in Pseudomonas aeruginosa PAO1 up to 1 mM; type: functional, organism-based
[4] = system: Pseudomonas aeruginosa; assay: Growth inhibition of Pseudomonas aeruginosa PAO1; type: functional, organism-based

Question: For OB(O)c1ccccc1 [PHENYLBORONIC ACID], which Ki [1] is on record?
Answer: 8 µM

Question: How did the Ki [1] turn out when Nc1cccc(S(N)(=O)=O)c1 was run?
Answer: 0.032 µM

Question: How did the Ki [1] turn out when O=[Te](=O)(O)O [SODIUM TELLURATE] was run?
Answer: 7900 µM

Question: With O=S(=O)(O)OOS(=O)(=O)O [SODIUM PERSULFATE] as the compound, how does the Ki [1] read?
Answer: 720 µM

Question: Which Ki [1] does the source give for S=C(S)S [SODIUM CARBONOTRITHIOATE] here?
Answer: 840 µM

Question: For [N-]=[N+]=[N-] [SODIUM AZIDE], which Ki [1] is on record?
Answer: 770 µM

Question: For S [SODIUM HYDROSULFIDE], which Ki [1] is on record?
Answer: 620 µM

Question: O=C([O-])O.[Na+] [SODIUM BICARBONATE] was tested. Which Ki [1] did it give?
Answer: 3200 µM

Question: How did the Ki [1] turn out when O=NO [SODIUM NITRITE] was run?
Answer: 940 µM

Question: Which Ki [1] does the source give for CCN(CC)C(=S)S [DITIOCARB SODIUM] here?
Answer: 330 µM

Question: How did the Ki [1] turn out when O=[Se](=O)(O)O [SODIUM SELENATE] was run?
Answer: 23500 µM

Question: With O=S(=O)([O-])[O-].[Na+].[Na+] [SODIUM SULFATE ANHYDROUS] as the compound, how does the Ki [1] read?
Answer: > 100000 µM

Question: For [I-].[Na+] [SODIUM IODIDE], which Ki [1] is on record?
Answer: > 100000 µM

Question: With O=BOB(O)OB(O)OB=O [SODIUM TETRABORATE] as the compound, how does the Ki [1] read?
Answer: 9100 µM

Question: [Br-].[Na+] [SODIUM BROMIDE] was tested. Which Ki [1] did it give?
Answer: > 100000 µM

Question: For NS(N)(=O)=O [SULFAMIDE], which Ki [1] is on record?
Answer: 8 µM

Question: What about the Time [2] of the same compound?
Answer: 1 h

Question: And the Activity [3]?
Answer: Active

Question: And the “growth inhibition (GI)” value [4]?
Answer: inactive

Question: For [O-][Cl+3]([O-])([O-])O [SODIUM PERCHLORATE], which Ki [1] is on record?
Answer: > 100000 µM

Question: F[B-](F)(F)F.[Na+] [SODIUM TETRAFLUOROBORATE] was tested. Which Ki [1] did it give?
Answer: > 100000 µM

Question: With O=[N+]([O-])[O-].[Na+] [SODIUM NITRATE] as the compound, how does the Ki [1] read?
Answer: 14200 µM

Question: [Cl-].[Na+] [SODIUM CHLORIDE] was tested. Which Ki [1] did it give?
Answer: > 100000 µM

Question: With N#CO [SODIUM CYANATE] as the compound, how does the Ki [1] read?
Answer: 650 µM

Question: Which Ki [1] does the source give for O=S(=O)(O)ONOS(=O)(=O)O [SODIUM IMINODISULFATE] here?
Answer: 4700 µM

Question: For O=S([O-])O.[Na+] [SODIUM BISULFITE], which Ki [1] is on record?
Answer: 7000 µM

Question: With N#C[S-].[Na+] [THIOCYANATE SODIUM] as the compound, how does the Ki [1] read?
Answer: 610 µM

Question: With NS(=O)(=O)O [SULFAMATE] as the compound, how does the Ki [1] read?
Answer: 38 µM

Question: [F-].[Na+] [SODIUM FLUORIDE] was tested. Which Ki [1] did it give?
Answer: > 100000 µM

Question: With N#C[SeH] [SODIUM SELENOCYANATE] as the compound, how does the Ki [1] read?
Answer: 680 µM

Source: ChEMBL document CHEMBL3596145, “Structure and inhibition studies of a type II beta-carbonic anhydrase psCA3 from Pseudomonas aeruginosa” (Bioorg Med Chem, 2015)
